Experimental data from PubChem BioAssay AID2060898 (Molecular Pharmacology Branch, DTP, NCI, 2025).

System: 616215-338-R-J1-PDC complex spheroid viability
Test: Anticancer human tumor 616215-338-R-J1-PDC patient-derived colon adenocarcinoma cell line growth inhibition [RAS]
Settings: for IC50: curve of first compound; for viability, T/C: stronger effect = lower value
Excerpt: RAS pathway inhibitors in Combinations in Complex Spheroids
A high-throughput screen of multi-cell type tumor spheroids was designed to identify active combinations of RAS pathway inhibitors and targeted small molecules. Complex spheroids include a stromal component modeled by human endothelial cells (HUVEC) and fibroblasts modeled by human mesenchymal stem cells (MSCs). The concentration ranges selected for each drug and investigational agent were based upon clinically achievable concentrations if the clinical Cmax of the agent was known.
Compounds. The drugs and investigational agents: abemaciclib (NSC768073), cobimetinib (NSC768068), divarasib (GDC6063, NSC841802), docetaxel (NSC628503), GDC-1971 (RLY-1971, NSC841576), gemcitabine (NSC613327), inavolisib (NSC800729), ipatasertib (NSC767898), KB-0742 (NSC834161), MRTX-1133 (NSC836407), osimertinib (NSC779217), RMC-4630 (NSC839698), RMC-6236 (NSC851965), RMC-6291 (NSC852671), Ro-3306 (NSC812927), sapanisertib (NSC764658), SN-38 (NSC673596), staurosporine (NSC755774), SY5609 (NSC837396), and tovorafenib (DAY101, NSC766906), were obtained from the National Cancer Institute (NCI) Developmental Therapeutics Program Chemical Repository. The FDA-approved anticancer drug set is available from the NCI Developmental Therapeutics Program. […] The stock solutions were prepared in dimethyl sulfoxide (DMSO, Sigma-Aldrich, St. Louis, MO, cat. D2650) at 800-fold the tested concentration and stored at -70 degrees C prior to their use. All drugs and investigational agents were tested over a range starting from a high concentration at or near the clinical Cmax and decreasing in half-log increments. If the clinical Cmax for an agent had not been determined, the highest concentration tested was 10 microM.
Cell Culture. All cells were maintained in an incubator at 37 degrees C and 5% CO2 with 95% humidity. The PDC lines were cultured according to standard operating procedures established by the NCI PDMR. All PDCs were thawed and cultured in Matrigel-coated flasks prepared with a working solution of 1X Ham's F-12 nutrient mix, without supplementation (Invitrogen, Waltham, MA, cat. 11765054), 100 U/mL penicillin-streptomycin (Invitrogen, cat. 15140122), and 2.5% Matrigel (Corning Inc., Corning, NY, cat. 354248) for the first three passages. The 362531-283-R-J2-PDC and 782815-120-R-J1-PDC lines were cultured in 6C/Colon 1B media, which includes advanced DMEM/F-12 (Thermo Fisher Scientific, cat. 12634028), 10 mM HEPES (Thermo Fisher Scientific, cat. 15630080), 1X GlutaMAX supplement (Thermo Fisher Scientific, cat. 35050061), 0.1 mg/mL primocin (InvivoGen, San Diego, CA, cat. ant-pm-2), 10% defined fetal bovine serum, heat inactivated (HyClone Laboratories Inc., Logan, UT, cat. SH30070.03HI), 50% L-WRN conditioned media (ATCC, cat. CRL-3276), 1.25 mM N-Acetyl-L-cysteine (Sigma-Aldrich, cat. A9165), 10 mM nicotinamide (Sigma-Aldrich, cat. N0636), 1X B-27 supplement (Thermo Fisher Scientific, cat. 17504044), 1X N-2 supplement (Thermo Fisher Scientific, cat. 17502048), 50 ng/mL human EGF (Thermo Fisher Scientific, cat. PHG0311), and 10 microM Y-27632 dihydrochloride (Tocris Bioscience, cat. 1254). The K12877-001-R-J1-PDC line was cultured in 6I media, which includes all 6C/Colon 1B media plus 10 ng/mL human FGF-10 (PeproTech, cat. 100-26), 1 ng/mL human FGF-2 (PeproTech, cat. 100-18B), 1 µM prostaglandin E2 (Tocris Bioscience, cat. 2296), […] hydrocortisone (Sigma-Aldrich, cat. H4001), and […] bovine insulin (Sigma-Aldrich, cat. I6634). The K86415-001-R-J1-PDC line was cultured in 6D media, which includes all 6C/Colon 1B media components minus the L-WRN conditioned media. The 485176-168-R4-J1-PDC was cultured in PANC media, which includes all 6C/Colon 1B media plus 100 ng/mL human FGF-10 (PeproTech, cat. 100-26), 500 nM SB-431542 (Selleckchem, cat. S1067), and 10 nM gastrin (Tocris Bioscience, cat. 3006). […]

[1] = second compound 0.0316 µM, first compound 0.0316 µM
[2] = second compound 0.0316 µM, first compound 0.1 µM
[3] = second compound 0.0316 µM, first compound 0.316 µM
[4] = second compound 0.0316 µM, first compound 1 µM
[5] = second compound 0.1 µM, first compound 0.0316 µM
[6] = second compound 0.1 µM, first compound 0.1 µM
[7] = second compound 0.1 µM, first compound 0.316 µM
[8] = second compound 0.1 µM, first compound 1 µM
[9] = second compound 0.316 µM, first compound 0.0316 µM
[10] = second compound 0.316 µM, first compound 0.1 µM
[11] = second compound 0.316 µM, first compound 0.316 µM
[12] = second compound 0.316 µM, first compound 1 µM
[13] = second compound 1 µM, first compound 0.0316 µM
[14] = second compound 1 µM, first compound 0.1 µM
[15] = second compound 1 µM, first compound 0.316 µM
[16] = second compound 1 µM, first compound 1 µM
[17] = second compound 3.16 µM, first compound 0.0316 µM
[18] = second compound 3.16 µM, first compound 0.1 µM
[19] = second compound 3.16 µM, first compound 0.316 µM
[20] = second compound 3.16 µM, first compound 1 µM
[21] = second compound 10 µM, first compound 0.0316 µM
[22] = second compound 10 µM, first compound 0.1 µM
[23] = second compound 10 µM, first compound 0.316 µM
[24] = second compound 10 µM, first compound 1 µM
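Also: spheroids exposed to agents for seven days before viability readout.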
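For viability, T/C in this document: 100% = DMSO vehicle control viability.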

CC(=O)OC12COC1CC(O)C1(C)C(=O)C(O)C3=C(C)C(OC(=O)C(O)C(NC(=O)OC(C)(C)C)c4ccccc4)CC(O)(C(OC(=O)c4ccccc4)C21)C3(C)C (centres undefined) + C#Cc1c(F)ccc2cc(O)cc(-c3ncc4c(N5CC6CCC(C5)N6)nc(OCC56CCCN5CC(F)C6)nc4c3F)c12
IC50 (second compound 0.0316 µM): < 31.6 nM | IC50 (second compound 0.1 µM): < 31.6 nM | IC50 (second compound 0.316 µM): < 31.6 nM | IC50 (second compound 1 µM): < 31.6 nM | IC50 (second compound 3.16 µM): < 31.6 nM | IC50 (second compound 10 µM): < 31.6 nM | viability, T/C [1]: 26.7% | viability, T/C [2]: 23.1% | viability, T/C [3]: 18.6% | viability, T/C [4]: 18.8% | viability, T/C (second compound 0.0316 µM, first compound 3.16 µM): 22.8% | viability, T/C (second compound 0.0316 µM, first compound 10 µM): 23% | viability, T/C [5]: 26.2% | viability, T/C [6]: 23.6% | viability, T/C [7]: 17.9% | viability, T/C [8]: 18% | viability, T/C (second compound 0.1 µM, first compound 3.16 µM): 25.9% | viability, T/C (second compound 0.1 µM, first compound 10 µM): 23.3% | viability, T/C [9]: 29.3% | viability, T/C [10]: 21.3% | viability, T/C [11]: 18% | viability, T/C [12]: 18.1% | viability, T/C (second compound 0.316 µM, first compound 3.16 µM): 22.4% | viability, T/C (second compound 0.316 µM, first compound 10 µM): 22.1% | viability, T/C [13]: 23% | viability, T/C [14]: 19.6% | viability, T/C [15]: 20.9% | viability, T/C [16]: 17.1% | viability, T/C (second compound 1 µM, first compound 3.16 µM): 19.1% | viability, T/C (second compound 1 µM, first compound 10 µM): 19.4% | viability, T/C [17]: 20.7% | viability, T/C [18]: 17.4% | viability, T/C [19]: 15.9% | viability, T/C [20]: 15.1% | viability, T/C (second compound 3.16 µM, first compound 3.16 µM): 17.9% | viability, T/C (second compound 3.16 µM, first compound 10 µM): 23.4% | viability, T/C [21]: 14.5% | viability, T/C [22]: 14.9% | viability, T/C [23]: 16.1% | viability, T/C [24]: 13% | viability, T/C (second compound 10 µM, first compound 3.16 µM): 17.5% | viability, T/C (second compound 10 µM, first compound 10 µM): 12.3%

Nc1ccn(C2OC(CO)C(O)C2(F)F)c(=O)n1 (centres undefined) + C#Cc1c(F)ccc2cc(O)cc(-c3ncc4c(N5CC6CCC(C5)N6)nc(OCC56CCCN5CC(F)C6)nc4c3F)c12
IC50 (second compound 0.0316 µM): 9.25 nM | IC50 (second compound 0.1 µM): 9.98 nM | IC50 (second compound 0.316 µM): 9.74 nM | IC50 (second compound 1 µM): 5.94 nM | IC50 (second compound 3.16 µM): 3.91 nM | IC50 (second compound 10 µM): 3.26 nM | viability, T/C (second compound 0.0316 µM, first compound 0.00316 µM): 113% | viability, T/C (second compound 0.0316 µM, first compound 0.01 µM): 44.9% | viability, T/C [1]: 24.6% | viability, T/C [2]: 13% | viability, T/C [3]: 13.2% | viability, T/C [4]: 16.3% | viability, T/C (second compound 0.1 µM, first compound 0.00316 µM): 117% | viability, T/C (second compound 0.1 µM, first compound 0.01 µM): 48.8% | viability, T/C [5]: 28.1% | viability, T/C [6]: 14.9% | viability, T/C [7]: 14.4% | viability, T/C [8]: 14.6% | viability, T/C (second compound 0.316 µM, first compound 0.00316 µM): 90% | viability, T/C (second compound 0.316 µM, first compound 0.01 µM): 48.5% | viability, T/C [9]: 28.4% | viability, T/C [10]: 15.6% | viability, T/C [11]: 13.9% | viability, T/C [12]: 14.8% | viability, T/C (second compound 1 µM, first compound 0.00316 µM): 77% | viability, T/C (second compound 1 µM, first compound 0.01 µM): 24.4% | viability, T/C [13]: 26.7% | viability, T/C [14]: 12.7% | viability, T/C [15]: 10.8% | viability, T/C [16]: 12.1% | viability, T/C (second compound 3.16 µM, first compound 0.00316 µM): 55.9% | viability, T/C (second compound 3.16 µM, first compound 0.01 µM): 24.1% | viability, T/C [17]: 19% | viability, T/C [18]: 10.6% | viability, T/C [19]: 11.6% | viability, T/C [20]: 12.1% | viability, T/C (second compound 10 µM, first compound 0.00316 µM): 50.9% | viability, T/C (second compound 10 µM, first compound 0.01 µM): 21.4% | viability, T/C [21]: 16.3% | viability, T/C [22]: 12.4% | viability, T/C [23]: 10% | viability, T/C [24]: 10.9%
